Reference: patent US20240327334A1, “Covalent Inhibitors As Antiviral Agents” (Enanta Pharmaceuticals, Inc., priority 2022, published 2024)
pEC50, pIC50: −log10 of the molar value. Where two headings read alike, the source gives them in different places.

Legend:
[1] = target: SARS-CoV-2 Papain-like (PLpro) protease (Severe acute respiratory syndrome coronavirus 2, UniProt P0DTD1); experiment: SARS-CoV-2 Papain-like (PLpro) protease biochemical enzyme inhibition assay (ubiquitin-fluorophore substrate, Ub-R110)
SARS-CoV-2 replicon = experiment: microbe, parasite or virus in culture; assay type: cell-based; settings: Severe acute respiratory syndrome coronavirus 2, Huh-7
[2] = Ub-R110 substrate, run in duplicate, read-out: PLpro IC50

Row | SMILES | pIC50 [1, 2] | pEC50 (SARS-CoV-2 replicon) | pIC50 [1]
1 | C[C@@H](C#Cc1nccs1)NC(=O)C(=O)NCc1ccccc1C(=O)NC1(c2cc(Cl)cc(-c3ncco3)c2)CC1 [Example 493] | > 7.00 | > 6.00 | 
2 | Cc1nn(C)c(C)c1-c1cc(C2(NC(=O)c3ccccc3CNC(=O)C(=O)NCC#Cc3nccs3)CC2)cc2ccccc12 [Example 299] | > 7.00 | > 6.00 | 
3 | N#CCNC(=O)C(=O)NCc1ccccc1C(=O)NC1(c2cn(-c3cnn(C4CC4)c3)c3ncccc23)CC1 [Example 409] | > 7.00 | 5.00 to 6.00 | 
4 | C#CCNC(=O)C(=O)NCc1ccccc1C(=O)NC1(c2ccc3c(cnn3C)c2)CC1 [Example 344] | > 7.00 | > 6.00 | 
5 | O=C(NC/C=C/C(=O)N1CCCCO1)C(=O)NCc1ccccc1C(=O)NC1(c2cccc3ccccc23)CC1 [Example 566] | 6.00 to 7.00 | 5.00 to 6.00 | 
6 | O=C(NCC#Cc1ccccn1)C(=O)NCc1ccccc1C(=O)NC1(c2ccc3ccccc3c2)CC1 [Example 174] | > 7.00 | > 6.00 | 
7 | O=C(NC/C=C/S(=O)(=O)c1ccccc1)C(=O)NCc1ccccc1C(=O)NC1(c2ccc3ccccc3c2)CC1 [Example 173] | > 7.00 | > 6.00 | 
8 | C#CCNC(=O)C(=O)NCc1ccccc1C(=O)NC1(c2cc(OC)c3nn(C4CC4)cc3c2)CC1 [Example 343] | > 7.00 | > 6.00 | 
9 | Cc1nn(C)c(C)c1-c1cc(F)cc(C2(NC(=O)c3ccccc3CNC(=O)C(=O)NCC#Cc3nccs3)CC2)c1 [Example 490] | > 7.00 | > 6.00 | 
10 | Cc1n[nH]c(C)c1-c1cc(C(F)(F)F)cc(C2(NC(=O)c3ccccc3CNC(=O)C(=O)NCC#N)CC2)c1 [Example 476] | 6.00 to 7.00 | 5.00 to 6.00 | 
11 | C#CCNC(=O)C(=O)NCc1ccccc1C(=O)NC1(c2cccc(-c3cccs3)c2Cl)CC1 [Example 383] | > 7.00 | > 6.00 | 
12 | C[C@@H](C#Cc1ccc(C#N)cc1F)NC(=O)C(=O)NCc1ccccc1C(=O)NC1(c2cc(F)cc(-c3cnn(C4CC4)c3)c2)CC1 [Example 145] | > 7.00 | > 6.00 | 
13 | Cn1cc2cc(C3(NC(=O)c4ccccc4CNC(=O)C(=O)NCC#Cc4ccc(C#N)cc4OC(F)(F)F)CC3)ccc2n1 [Example 214] | > 7.00 | > 6.00 | 
14 | N#CCNC(=O)C(=O)NCc1ccccc1C(=O)NC1(c2cc(-c3cncs3)cc3ccccc23)CC1 [Example 349] | > 7.00 | > 6.00 | 
15 | C[C@@H](NC(=O)c1ccccc1CNC(=O)C(=O)NCC#N)c1cc(-c2ccco2)cc(C(F)(F)F)c1 [Example 467] | > 7.00 | > 6.00 | 
16 | Cc1cccnc1C#CCNC(=O)C(=O)NCc1ccccc1C(=O)NC1(c2cc(F)cc(-c3cnn(C4CC4)c3)c2)CC1 [Example 262] | > 7.00 | > 6.00 | 
17 | N#CCNC(=O)C(=O)NCc1ccccc1C(=O)NC1(c2cc(C(=O)NC3CC3)cc3ccccc23)CC1 [Example 117] | > 7.00 | 5.00 to 6.00 | 
18 | C[C@@H](C#Cc1nccs1)NC(=O)C(=O)NCc1ccccc1C(=O)NC1(c2ccc3ccccc3c2)CC1 [Example 183] | > 7.00 | > 6.00 | 
19 | COC(=O)/C=C/CNC(=O)C(=O)NCc1ccccc1C(=O)N[C@H](C)c1cc(-c2ccoc2)cc(C(F)(F)F)c1 [Example 465] | > 7.00 | > 6.00 | 
20 | N#CN1CCC[C@H]1CNC(=O)C(=O)NCc1ccccc1C(=O)NC1(c2cccc3ccccc23)CC1 [Example 504] | > 7.00 | > 6.00 | 
21 | Cc1nn(C2CC2)c(C)c1-c1cc(Cl)cc(C2(NC(=O)c3ccccc3CNC(=O)C(=O)NCC#N)CC2)c1 [Example 130] | > 7.00 | 5.00 to 6.00 | 
22 | CC1(O)CN(c2cc(C3(NC(=O)c4ccccc4CNC(=O)C(=O)NCC#N)CC3)c3ccccc3c2)C1 [Example 319] | > 7.00 | 5.00 to 6.00 | 

Row | SMILES | pIC50 [1, 2] | pEC50 (SARS-CoV-2 replicon) | pIC50 [1]
23 | O=C(NCC#Cc1ncc(F)s1)C(=O)NCc1ccccc1C(=O)NC1(c2ccc3ccccc3c2)CC1 [Example 179] | > 7.00 | > 6.00 | 
24 | COc1cnc(C#CCNC(=O)C(=O)NCc2ccccc2C(=O)NC2(c3ccc4ccccc4c3)CC2)cn1 [Example 198] | > 7.00 | > 6.00 | 
25 | N#CN1CC[C@H](C(=O)NCc2ccccc2C(=O)NC2(c3cc(Br)cc4ccccc34)CC2)C1 [Example 417] |  | > 6.00 | 
26 | N#CN1CC[C@@H](C(=O)NCc2ccccc2C(=O)NC2(c3cc(Br)cc4ccccc34)CC2)C1 [Example 416] |  | > 6.00 | 
27 | COC(=O)/C=C/CNC(=O)C(=O)NCc1c(F)cc(F)cc1C(=O)N[C@H](C)c1cccc2ccccc12 [Example 360] |  | 5.00 to 6.00 | 
28 | COc1cc(C2(NC(=O)c3ccccc3CNC(=O)C(=O)NC/C=C/c3ccccn3)CC2)cc2cn(C3CC3)nc12 [Example 581] | 6.00 to 7.00 |  | 
29 | CCOP(=O)(/C=C/CCNC(=O)C(=O)NCc1ccccc1C(=O)N[C@H](C)c1cccc2ccccc12)OCC [Example 12] |  |  | < 5.00
30 | C[C@@H](NC(=O)c1ccccc1CNC(=O)C(=O)NC/C=C/C(=O)O)c1cccc2ccccc12 [Example 14] | 5.00 to 6.00 |  | 
31 | O=C(NCC#Cc1ccc2c(c1)CNC2=O)C(=O)NCc1ccccc1C(=O)NC1(c2ccc3ccccc3c2)CC1 [Example 410] | 6.00 to 7.00 |  | 
32 | O=C(NCC#Cc1cc(F)cc(F)c1)C(=O)NCc1ccccc1C(=O)NC1(c2ccc3ccccc3c2)CC1 [Example 75] | < 5.00 |  | 
33 | N#CN1CCC[C@@H]1CNC(=O)C(=O)NCc1ccccc1C(=O)NC1(c2cccc3ccccc23)CC1 [Example 508] | 6.00 to 7.00 |  | 
34 | C#CCNC(=O)C(=O)NCc1ccccc1C(=O)NC1(c2cc(Oc3ccccc3)cc(C(F)(F)F)c2)CC1 [Example 67] | < 5.00 |  | 
35 | C[C@@H](NC(=O)c1ccccc1CNC(=O)C(=O)NCC#N)c1cc(C(F)(F)F)nc2ccccc12 [Example 325] | < 5.00 |  | 
36 | N#Cc1ccc(C#CCNC(=O)C(=O)NCc2ccccc2C(=O)NC2(c3ccc4ccccc4c3)CC2)s1 [Example 92] | 5.00 to 6.00 |  | 
37 | O=C(NC/C=C\c1nccs1)C(=O)NCc1ccccc1C(=O)NC1(c2ccc3ccccc3c2)CC1 [Example 401] | 5.00 to 6.00 |  | 
38 | C#CCNC(=O)C(=O)NCc1ccccc1C(=O)NC1(c2cccc3ccccc23)CC1 [Example 32] | > 7.00 |  | 
39 | N#Cc1ccc(C#CCNC(=O)C(=O)NCc2ccccc2C(=O)NC2(c3cccc4ccccc34)COC2)c(F)c1 [Example 108] | < 5.00 |  | 
40 | COC(=O)/C=C/CNC(=O)C(=O)NC(C)c1ccccc1C(=O)N[C@H](C)c1cccc2ccccc12 (some centres unmarked) [Example 52] | 5.00 to 6.00 |  | 
41 | C#CC(=O)NNC(=O)C(=O)Nc1ccccc1C(=O)N[C@H](C)c1cccc2ccccc12 [Example 26] | 5.00 to 6.00 |  | 
42 | COCC(C)(C)NC(=O)/C=C/CNC(=O)C(=O)NCc1ccccc1C(=O)N[C@H](C)c1cccc2ccccc12 [Example 565] | 5.00 to 6.00 |  | 
43 | CC(C)(C)OC(=O)NNC(=O)/C=C/CNC(=O)C(=O)NCc1ccccc1C(=O)NC1(c2cccc3ccccc23)CC1 [Example 548] | 6.00 to 7.00 |  | 
44 | N#CCNC(=O)C(=O)NCc1ccccc1C(=O)NC1(c2cc(-c3cnn(C4CC4)c3)nc3[nH]ccc23)CC1 [Example 414] | 6.00 to 7.00 |  | 

Row | SMILES | pIC50 [1, 2] | pEC50 (SARS-CoV-2 replicon) | pIC50 [1]
45 | N#CCNC(=O)C(=O)NCc1ccccc1C(=O)NC1(c2ccnc3c2ccn3C2CC2)CC1 [Example 406] | > 7.00 |  | 
46 | CN(C(=O)c1cc(Cl)cc(C2(NC(=O)c3ccccc3CNC(=O)C(=O)NCC#N)CC2)c1)c1ccc(F)cc1 [Example 78] | 6.00 to 7.00 |  | 
47 | C#CCNC(=O)C(=O)NCc1ccccc1C(=O)NC1(c2cc(-c3c(C)cnn3C)cc(C(F)(F)F)c2)CC1 [Example 475] | 6.00 to 7.00 |  | 
48 | COc1cc(C2(NC(=O)c3ccccc3CNC(=O)C(=O)NC[C@@H]3CCCN3)CC2)cc2cn(C3CC3)nc12 [Example 511] | 5.00 to 6.00 |  | 
49 | N#CCNC(=O)C(=O)NCc1ccccc1C(=O)NC1(c2cccc(Br)c2F)CC1 [Example 373] | 6.00 to 7.00 |  | 
50 | C[C@@H](C#Cc1nccs1)NC(=O)C(=O)NCc1ccccc1C(=O)NC1(c2cccc3c2ccn3C)CC1 [Example 531] | > 7.00 |  | 
51 | CN(C#N)NC(=O)C(=O)NCc1ccccc1C(=O)NC1(c2ccc(F)c3ccccc23)CC1 [Example 124] | 5.00 to 6.00 |  | 
52 | CC(C)Oc1cccnc1C#C[C@H](C)NC(=O)C(=O)NCc1ccccc1C(=O)NC1(c2cc(F)cc(-c3cnn(C4CC4)c3)c2)CC1 [Example 268] | 6.00 to 7.00 |  | 
53 | N#CCNC(=O)C(=O)NCc1ccccc1C(=O)NC1(c2cc(Br)cc3ccccc23)CC1 [Example 44] | > 7.00 |  | 
54 | O=C(NCc1ccccc1C(=O)NC1(c2ccc(F)c3ccccc23)CC1)C(=O)N[C@H]1CNC1=O [Example 122] | < 5.00 |  | 
55 | C[C@@H](C#Cc1ccc([S+](C)[O-])cc1)NC(=O)C(=O)NCc1ccccc1C(=O)NC1(c2ccc3nn(C)cc3c2)CC1 (some centres unmarked) [Example 111] | 5.00 to 6.00 |  | 
56 | C=CCNC(=O)C(=O)NCc1ccccc1C(=O)NC1(c2ccc3ccccc3c2)CC1 [Example 497] | < 5.00 |  | 
57 | C[C@@H](NC(=O)c1ccccc1CNC(=O)C(=O)NC/C=C/C(=O)N1CC[C@H](C#N)C1)c1cccc2ccccc12 [Example 550] | < 5.00 |  | 
58 | O=C(NCC#CC1CC1)C(=O)NCc1ccccc1C(=O)NC1(c2ccc3ccccc3c2)CC1 [Example 523] | < 5.00 |  | 
59 | NNC(=O)/C=C/CNC(=O)C(=O)NCc1ccccc1C(=O)NC1(c2cccc3ccccc23)CC1 [Example 553] | 6.00 to 7.00 |  | 
60 | O=C(NCC#Cc1nccs1)C(=O)NCc1ccccc1C(=O)NC1(c2ccc3ncccc3c2)CC1 [Example 389] | > 7.00 |  | 
61 | O=C(NCC#Cc1ccc(F)cc1F)C(=O)NCc1ccccc1C(=O)NC1(c2ccc3ccccc3c2)CC1 [Example 80] | < 5.00 |  | 
62 | COC(=O)/C=C/CCNC(=O)C(=O)Nc1ccccc1C(=O)N[C@H](C)c1cccc2ccccc12 [Example 10] | < 5.00 |  | 
63 | Cc1nnc(-c2cc(Cl)cc(C3(NC(=O)c4ccccc4CNC(=O)C(=O)NCC#N)CC3)c2)o1 [Example 483] | 6.00 to 7.00 |  | 
64 | Cc1nnc(-c2cc(-c3nnc(C)o3)cc(C3(NC(=O)c4ccccc4CNC(=O)C(=O)NCC#N)CC3)c2)o1 [Example 478] | 6.00 to 7.00 |  | 
65 | C[C@@H](C#Cc1ncco1)NC(=O)C(=O)NCc1ccccc1C(=O)NC1(c2cc(F)cc(-c3cnn(C4CC4)c3)c2)CC1 [Example 143] | 5.00 to 6.00 |  | 
